Test results taken from PubChem BioAssay AID2060484 (Molecular Pharmacology Branch, DTP, NCI, 2025).

Tested on: SUM149PT spheroids with HUVEC/MSC, viability
Assay: Anticancer human tumor SUM149PT cell line growth inhibition [GQUAD];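 also: spheroids exposed to drugs for seven days before readout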;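 as to viability, T/C: percent viability relative to DMSO vehicle control taken as 100%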
Details: for IC50: curve of first compound; for viability, T/C: stronger effect = lower value
Method in brief: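 Tumor cells were grown as complex spheroids with HUVEC endothelial cells and mesenchymal stem cells as stroma. G-quadruplex stabilizers were combined with targeted agents over half-log dilutions from near the clinical Cmax, or from 10 microM.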

[1] = second compound 0.0316 µM, first compound 0.0316 µM
[2] = second compound 0.0316 µM, first compound 0.1 µM
[3] = second compound 0.0316 µM, first compound 0.316 µM
[4] = second compound 0.0316 µM, first compound 1 µM
[5] = second compound 0.0316 µM, first compound 3.16 µM
[6] = second compound 0.0316 µM, first compound 10 µM
[7] = second compound 0.1 µM, first compound 0.0316 µM
[8] = second compound 0.1 µM, first compound 0.1 µM
[9] = second compound 0.1 µM, first compound 0.316 µM
[10] = second compound 0.1 µM, first compound 1 µM
[11] = second compound 0.1 µM, first compound 3.16 µM
[12] = second compound 0.1 µM, first compound 10 µM
[13] = second compound 0.316 µM, first compound 0.0316 µM
[14] = second compound 0.316 µM, first compound 0.1 µM
[15] = second compound 0.316 µM, first compound 0.316 µM
[16] = second compound 0.316 µM, first compound 1 µM
[17] = second compound 0.316 µM, first compound 3.16 µM
[18] = second compound 0.316 µM, first compound 10 µM
[19] = second compound 1 µM, first compound 0.0316 µM
[20] = second compound 1 µM, first compound 0.1 µM
[21] = second compound 1 µM, first compound 0.316 µM
[22] = second compound 1 µM, first compound 1 µM
[23] = second compound 1 µM, first compound 3.16 µM
[24] = second compound 1 µM, first compound 10 µM
[25] = second compound 3.16 µM, first compound 0.0316 µM
[26] = second compound 3.16 µM, first compound 0.1 µM
[27] = second compound 3.16 µM, first compound 0.316 µM
[28] = second compound 3.16 µM, first compound 1 µM
[29] = second compound 3.16 µM, first compound 3.16 µM
[30] = second compound 3.16 µM, first compound 10 µM
[31] = second compound 10 µM, first compound 0.0316 µM
[32] = second compound 10 µM, first compound 0.1 µM
[33] = second compound 10 µM, first compound 0.316 µM
[34] = second compound 10 µM, first compound 1 µM
[35] = second compound 10 µM, first compound 3.16 µM
[36] = second compound 10 µM, first compound 10 µM

## C=CCn1c(=O)c2cnc(Nc3ccc(N4CCN(C)CC4)cc3)nc2n1-c1cccc(C(C)(C)O)n1 + Cc1[nH]c2ccc(F)cc2c1-c1nc2c3cccnc3c3ncccc3c2[nH]1
Second compound 0.0316 µM
  IC50: 188 nM
Second compound 0.1 µM
  IC50: 192 nM
Second compound 0.316 µM
  IC50: 191 nM
Second compound 1 µM
  IC50: 181 nM
Second compound 3.16 µM
  IC50: 174 nM
Second compound 10 µM
  IC50: 189 nM
[1]
  viability, T/C: 98.9%
[2]
  viability, T/C: 67%
[3]
  viability, T/C: 34.8%
[4]
  viability, T/C: 21%
[5]
  viability, T/C: 10.4%
[6]
  viability, T/C: 7.37%
[7]
  viability, T/C: 91.1%
[8]
  viability, T/C: 73.5%
[9]
  viability, T/C: 30.3%
[10]
  viability, T/C: 21.4%
[11]
  viability, T/C: 11.7%
[12]
  viability, T/C: 7.7%
[13]
  viability, T/C: 94.7%
[14]
  viability, T/C: 72.5%
[15]
  viability, T/C: 31.1%
[16]
  viability, T/C: 21.9%
[17]
  viability, T/C: 10.5%
[18]
  viability, T/C: 11.6%
[19]
  viability, T/C: 85.8%
[20]
  viability, T/C: 66.1%
[21]
  viability, T/C: 33.2%
[22]
  viability, T/C: 22.6%
[23]
  viability, T/C: 9.91%
[24]
  viability, T/C: 9.92%
[25]
  viability, T/C: 84.2%
[26]
  viability, T/C: 66.6%
[27]
  viability, T/C: 31%
[28]
  viability, T/C: 20.3%
[29]
  viability, T/C: 9.05%
[30]
  viability, T/C: 8.88%
[31]
  viability, T/C: 88.7%
[32]
  viability, T/C: 66.6%
[33]
  viability, T/C: 35.9%
[34]
  viability, T/C: 20.1%
[35]
  viability, T/C: 10.6%
[36]
  viability, T/C: 9.87%

## Cc1[nH]c2ccccc2c1CCNCc1ccc(/C=C/C(=O)NO)cc1 + Cc1[nH]c2ccc(F)cc2c1-c1nc2c3cccnc3c3ncccc3c2[nH]1
Second compound 0.0316 µM
  IC50: 260 nM
Second compound 0.1 µM
  IC50: > 316 nM
Second compound 0.316 µM
  IC50: 299 nM
Second compound 1 µM
  IC50: 304 nM
Second compound 3.16 µM
  IC50: 308 nM
Second compound 10 µM
  IC50: 250 nM
Second compound 0.0316 µM, first compound 0.000999 µM
  viability, T/C: 98%
Second compound 0.0316 µM, first compound 0.00316 µM
  viability, T/C: 99.6%
Second compound 0.0316 µM, first compound 0.00999 µM
  viability, T/C: 103%
[1]
  viability, T/C: 102%
Second compound 0.0316 µM, first compound 0.0999 µM
  viability, T/C: 98%
[3]
  viability, T/C: 40.3%
Second compound 0.1 µM, first compound 0.000999 µM
  viability, T/C: 101%
Second compound 0.1 µM, first compound 0.00316 µM
  viability, T/C: 97.5%
Second compound 0.1 µM, first compound 0.00999 µM
  viability, T/C: 97.6%
[7]
  viability, T/C: 97.2%
Second compound 0.1 µM, first compound 0.0999 µM
  viability, T/C: 90.6%
[9]
  viability, T/C: 50.3%
Second compound 0.316 µM, first compound 0.000999 µM
  viability, T/C: 108%
Second compound 0.316 µM, first compound 0.00316 µM
  viability, T/C: 107%
Second compound 0.316 µM, first compound 0.00999 µM
  viability, T/C: 98%
[13]
  viability, T/C: 106%
Second compound 0.316 µM, first compound 0.0999 µM
  viability, T/C: 87.6%
[15]
  viability, T/C: 47.8%
Second compound 1 µM, first compound 0.000999 µM
  viability, T/C: 106%
Second compound 1 µM, first compound 0.00316 µM
  viability, T/C: 96.6%
Second compound 1 µM, first compound 0.00999 µM
  viability, T/C: 93.6%
[19]
  viability, T/C: 105%
Second compound 1 µM, first compound 0.0999 µM
  viability, T/C: 97.4%
[21]
  viability, T/C: 48.3%
Second compound 3.16 µM, first compound 0.000999 µM
  viability, T/C: 96.8%
Second compound 3.16 µM, first compound 0.00316 µM
  viability, T/C: 89.4%
Second compound 3.16 µM, first compound 0.00999 µM
  viability, T/C: 81.4%
[25]
  viability, T/C: 93.3%
Second compound 3.16 µM, first compound 0.0999 µM
  viability, T/C: 89.4%
[27]
  viability, T/C: 49.1%
Second compound 10 µM, first compound 0.000999 µM
  viability, T/C: 99.1%
Second compound 10 µM, first compound 0.00316 µM
  viability, T/C: 88%
Second compound 10 µM, first compound 0.00999 µM
  viability, T/C: 89.4%
[31]
  viability, T/C: 88.5%
Second compound 10 µM, first compound 0.0999 µM
  viability, T/C: 82.2%
[33]
  viability, T/C: 41.4%

## CC1COCCN1c1cc(-c2ccnn2C)c2ccnc(-c3ccn[nH]3)c2n1 (stereo not drawn) + Cc1cnc(CNC(=O)c2c(=O)c3ccc(N4CCCN(C)CC4)nc3n3c2sc2ccccc23)cn1
Second compound 0.0316 µM
  IC50: < 31.6 nM
Second compound 0.1 µM
  IC50: < 31.6 nM
Second compound 0.316 µM
  IC50: < 31.6 nM
Second compound 1 µM
  IC50: < 31.6 nM
Second compound 3.16 µM
  IC50: < 31.6 nM
Second compound 10 µM
  IC50: < 31.6 nM
[1]
  viability, T/C: 14.7%
[2]
  viability, T/C: 12.5%
[3]
  viability, T/C: 18.1%
[4]
  viability, T/C: 18.2%
[5]
  viability, T/C: 20.6%
[6]
  viability, T/C: 19.2%
[7]
  viability, T/C: 17.1%
[8]
  viability, T/C: 19.6%
[9]
  viability, T/C: 18.7%
[10]
  viability, T/C: 20.3%
[11]
  viability, T/C: 20.3%
[12]
  viability, T/C: 20.4%
[13]
  viability, T/C: 21.1%
[14]
  viability, T/C: 20.5%
[15]
  viability, T/C: 24.3%
[16]
  viability, T/C: 20.3%
[17]
  viability, T/C: 21.9%
[18]
  viability, T/C: 18.4%
[19]
  viability, T/C: 21.4%
[20]
  viability, T/C: 23.1%
[21]
  viability, T/C: 26.4%
[22]
  viability, T/C: 21.5%
[23]
  viability, T/C: 20.7%
[24]
  viability, T/C: 17.5%
[25]
  viability, T/C: 25.9%
[26]
  viability, T/C: 23.6%
[27]
  viability, T/C: 24.2%
[28]
  viability, T/C: 20.8%
[29]
  viability, T/C: 18.8%
[30]
  viability, T/C: 15.9%
[31]
  viability, T/C: 0.11%
[32]
  viability, T/C: 0.15%
[33]
  viability, T/C: 0.93%
[34]
  viability, T/C: 1.21%
[35]
  viability, T/C: 1.74%
[36]
  viability, T/C: 0.18%

## CC1COCCN1c1cc(C2(O)CC3CCC(C2)O3)c2cnn(-c3ccn[nH]3)c2n1 (stereo not drawn) + Cc1cnc(CNC(=O)c2c(=O)c3ccc(N4CCCN(C)CC4)nc3n3c2sc2ccccc23)cn1
Second compound 0.0316 µM
  IC50: < 31.6 nM
Second compound 0.1 µM
  IC50: < 31.6 nM
Second compound 0.316 µM
  IC50: < 31.6 nM
Second compound 1 µM
  IC50: < 31.6 nM
Second compound 3.16 µM
  IC50: < 31.6 nM
Second compound 10 µM
  IC50: < 31.6 nM
[1]
  viability, T/C: 18.1%
[2]
  viability, T/C: 15.6%
[3]
  viability, T/C: 18.9%
[4]
  viability, T/C: 17.3%
[5]
  viability, T/C: 19.6%
[6]
  viability, T/C: 15.7%
[7]
  viability, T/C: 19.2%
[8]
  viability, T/C: 18.7%
[9]
  viability, T/C: 19.7%
[10]
  viability, T/C: 18.3%
[11]
  viability, T/C: 17.6%
[12]
  viability, T/C: 14.8%
[13]
  viability, T/C: 19.4%
[14]
  viability, T/C: 21.5%
[15]
  viability, T/C: 22%
[16]
  viability, T/C: 18.2%
[17]
  viability, T/C: 17.9%
[18]
  viability, T/C: 12.6%
[19]
  viability, T/C: 21.8%
[20]
  viability, T/C: 23.7%
[21]
  viability, T/C: 21.4%
[22]
  viability, T/C: 17.4%
[23]
  viability, T/C: 15.7%
[24]
  viability, T/C: 12.9%
[25]
  viability, T/C: 23%
[26]
  viability, T/C: 22.9%
[27]
  viability, T/C: 21.1%
[28]
  viability, T/C: 16%
[29]
  viability, T/C: 14.7%
[30]
  viability, T/C: 11%
[31]
  viability, T/C: 0.11%
[32]
  viability, T/C: 1.32%
[33]
  viability, T/C: 1.05%
[34]
  viability, T/C: 1.13%
[35]
  viability, T/C: 1.57%
[36]
  viability, T/C: 0.19%
